Test results from ChEMBL document CHEMBL1152032, “Inhibition of interleukin-1 converting enzyme by N-Acyl-aspartic acid ketones” (Bioorg Med Chem Lett, 1995).

Target: T1, Caspase-1 (Homo sapiens, UniProt P29466)
T1 sequence (P29466 whole entry): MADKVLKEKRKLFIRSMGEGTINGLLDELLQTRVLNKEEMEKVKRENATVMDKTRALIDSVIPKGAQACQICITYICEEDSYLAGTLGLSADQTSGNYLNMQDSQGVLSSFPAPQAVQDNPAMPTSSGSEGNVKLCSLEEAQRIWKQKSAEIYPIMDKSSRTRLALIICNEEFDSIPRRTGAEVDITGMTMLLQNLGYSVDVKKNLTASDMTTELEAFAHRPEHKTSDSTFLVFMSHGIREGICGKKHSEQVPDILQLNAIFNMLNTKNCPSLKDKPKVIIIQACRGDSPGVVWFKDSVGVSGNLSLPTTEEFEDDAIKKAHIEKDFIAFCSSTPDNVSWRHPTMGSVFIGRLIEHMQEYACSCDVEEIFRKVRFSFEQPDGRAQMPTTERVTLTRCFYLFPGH
Assay: Inhibition of IL-1 beta converting enzyme (ICE) in human blood monocytes
Type: cell-based

First: C=CCOC(=O)N[C@@H](CC(=O)O)C(=O)CSCCCc1ccccc1
Second: C=CCOC(=O)N[C@@H](CC(=O)O)C(=O)CCCCc1ccccc1
The Ki of the first is lower: 27 µM for the first, over 100 µM for the second. The first binds more tightly here.

Going from `C=CCOC(=O)N[C@@H](CC(=O)O)C(=O)COC(=O)NCc1ccccc1` to `C=CCOC(=O)N[C@@H](CC(=O)O)C(=O)COC(=O)CCc1ccccc1`, the Ki falls from 74 µM to 20 µM (3.7-fold).

Going from `C=CCOC(=O)N[C@@H](CC(=O)O)C(=O)COC(=O)CCOc1ccccc1` to `C=CCOC(=O)N[C@@H](CC(=O)O)C(=O)COC(=O)/C=C/c1ccccc1`, the Ki rises from 23 µM to 90 µM (3.9-fold). The first binds more tightly here.

First: CC(=O)N[C@@H](Cc1ccc(O)cc1)C(=O)N[C@H](C(=O)N[C@@H](C)C(=O)N[C@@H](CC(=O)O)C(=O)CCCCc1ccccc1)C(C)C
Second: O=C(O)C[C@H](NC(=O)OCc1ccccc1)C(=O)COCCCc1ccccc1
The Ki of the first is 1.8-fold higher: 42 µM for the first, 24 µM for the second.

Going from `C=CCOC(=O)N[C@@H](CC(=O)O)C(=O)CNC(Cc1ccccc1)c1ccccc1` (stereo partly specified) to `C=CCOC(=O)N[C@@H](CC(=O)O)C(=O)CNC(c1ccccc1)c1ccccc1`, the Ki rises from 70 µM to over 100 µM. The first binds more tightly here.

Going from `C=CCOC(=O)N[C@@H](CC(=O)O)C(=O)CNCCCc1ccccc1` to `C=CCOC(=O)N[C@@H](CC(=O)O)C(=O)CNCCc1ccccc1`, the Ki falls from 67 µM to 4.4 µM (15-fold). The second binds more tightly here.

Going from `C=CCOC(=O)N[C@@H](CC(=O)O)C(=O)CN(CCc1ccccc1)Cc1ccccc1` to `C=CCOC(=O)N[C@@H](CC(=O)O)C(=O)CN(C)CCc1ccccc1`, the Ki rises from 68 µM to over 100 µM.

Going from `C=CCOC(=O)N[C@@H](CC(=O)O)C(=O)CNCc1ccccc1` to `C=CCOC(=O)N[C@@H](CC(=O)O)C(=O)COC(=O)CCC1CCCCC1`, the Ki falls from over 100 µM to 3.5 µM. The second binds more tightly here.
